Data taken from paper PMC7117798 (Nature immunology, 2020).
Entries after “also recorded” stand apart in the source; their conditions may differ. One block for each compound: values may come before it.

Columns and labels:
[1] = tested on: CD4^+ T cell hybridomas with C3g7 APCs; assay: Antigen presentation assay; type: cell-based, mouse; conditions: for response of InsB:11–25-reactive CD4^+ T cell hybridoma clone 58: Extended Data Fig. 3
[2] = tested on: CD4^+ T cells from islets and pLN; type: cell-based; conditions: 8–10-week old female NOD mice; challenge with Ins1C:51–61 or Ins1C:51–61E and recall; compared with native Ins1C:51–61 or Ins1C:33–61; Fig. 3g
[3] = tested on: I-A^g7; assay: Competitive binding assay; design: species or system mouse; conditions: n = 2 independent experiments
[4] = C3g7 APCs pulsed with epitope, Fig. 2c

Compound: CCN(CC)CCCC(C)Nc1ccnc2cc(Cl)ccc12 (centres unmarked) [chloroquine, reference compound]
effect on presentation of Ins1C:33–61 to a cognate CD4^+ T cell hybridoma ([1]; C3g7 APCs treated with 100 μM chloroquine at 37°C for 2 h in the presence of antigen, Extended Data Fig. 1d): did not affect the presentation

Compound: EALYLVCGE [InsB:13–21]
response of InsB:11–25-reactive CD4^+ T cell hybridoma clone 58 [1, 4]: did not recognize; also recorded: unreactive

fold higher binding affinity to I-A^g7 than Ins1C:51–61 ([3]; competitive binding assay, Fig. 3e): ~ 3 fold
Compound: LQTLALEVARE [Ins1C:51–61E]
IL-2 and IFN-γ production by islet/pLN CD4^+ T cells [2]: substantially stronger responses

Compound: LYLVCGERG [InsB:15–23]
response of InsB:11–25-reactive CD4^+ T cell hybridoma clone 58 [1, 4]: responded

relative binding strength to I-A^g7 (in words) ([3]; competitive binding assay on C3g7 cells): bound poorly
Compound: TLALEVARE [Ins1C:53–61E]

Compound: VEALYLVCG [InsB:12–20]
response of InsB:11–25-reactive CD4^+ T cell hybridoma clone 21 [1, 4]: cross-reacted | response of InsB:11–25-reactive CD4^+ T cell hybridoma clone 58 [1, 4]: did not recognize; also recorded: unreactive
